In PMC10976043, “Function and Mechanism of Antiviral Wasp Venom Peptide Protopolybia-MP III and Its Derivatives against HSV-1” (Toxins, 2024):
Read-outs that look alike come from different tables or passages of the source. Ends that are not written are not given here.

Experiments:
A549 cells = assay: CCK8 cytotoxicity assay, A549 cells; format: cell-based, human; conditions: 40 μg/mL, 24 h
Description: (§1) Figure 2 Protopolybia-MP III inhibits HSV-1 replication in human cell lines. (A) Cytotoxicities of Protopolybia-MP III to A549 cells, HCEC, and SK-N-MC. Cells were treated with Protopolybia-MP III at different concentrations or PBS for 24 h, and then cytotoxicities were determined by the CCK8 assay. (B,C) Suppression of intracellular HSV-1 infection by Protopolybia-MP III in A549 cells, HCEC, and SK-N-MC. Cells were preincubated with Protopolybia-MP III at different concentrations or PBS for 1 h and then infected with HSV-1 at an MOI of 1. After 24 h, the cells were collected. Intracellular HSV-1 RNA was analyzed by qPCR (B), and intracellular HSV-1 ICP0 protein expression levels were analyzed by Western blotting (C). (D) Inhibition of Protopolybia-MP III on extracellular HSV-1 particles in A549 cells, HCEC, and SK-N-MC. Cells were treated with Protopolybia-MP III at different concentrations or PBS for 24 h, and then the supernatant was collected and evaluated in a plaque formation assay. * p < 0.05. ** p < 0.01. *** p < 0.001.
(§2) Cells were seeded in a 96-well plate (7000–10,000 cells per well) and cultured at 37 °C overnight. Peptides in a series of concentrations were added to the medium, and cells were then incubated at 37 °C for 24 h. […] Finally, the absorbance was measured at 450 nm using a microplate reader (BioTek, Winooski, VT, USA).

HSV-1 [1] = format: cell-based, herpes simplex virus type 1; conditions: for effect on intracellular HSV-1 RNA: different concentrations, HSV-1 MOI 1, 24 h, qPCR
Description: (§3) (A) Amino acid sequence of Protopolybia-MP III. Basic residues are labeled blue, and acidic residues are labeled red. (B,C) Suppression of intracellular HSV-1 infection by Protopolybia-MP III. Cells were preincubated with Protopolybia-MP III at different concentrations or PBS for 1 h and then infected with HSV-1 at a multiplicity of infection (MOI) of 1. After 24 h, the cells were collected. Intracellular HSV-1 RNA was analyzed by qPCR (B), and intracellular HSV-1 ICP0 protein levels were analyzed by Western blotting (C). (D) Suppression of Protopolybia-MP III on extracellular HSV-1 particles. Cells were treated with Protopolybia-MP III at different concentrations or PBS for 24 h, and then the supernatant was collected and evaluated in a plaque formation assay. (E) Cytotoxicity of Protopolybia-MP III to Vero cells. Cells were treated with Protopolybia-MP III or PBS at different concentrations for 24 h, and then the cytotoxicity was determined by CCK8 assay. * p < 0.05. ** p < 0.01. *** p < 0.001.
as §1
HSV-1 was kindly provided by Professor Zhijian Cao of Wuhan University. Cells were infected with HSV-1 at an MOI of 1 for 24 h. Then, cells were collected for qPCR, Western blotting, and immunofluorescence assays, and the extracellular supernatant was used for plaque formation assays.
Cells were collected and lysed using TRIzol reagent (Beyotime Biotechnology, Shanghai, China) to release the intracellular total RNA, followed by precipitation with isopropanol. The first-strand cDNA was reverse-transcribed by the HiScript III 1st Strand cDNA Synthesis Kit (+gDNA wiper) (Vazyme, Nanjing, China). The cDNA was quantitated by qPCR with primers using Taq Pro Universal SYBR qPCR Master Mix (Vazyme). The HSV-1 primers were 5′-[…]-3′ (sense) and 5′-[…]-3′ (antisense). The monkey GAPDH primers were 5′-[…]-3′ (sense) and 5′-[…]-3′ (antisense). The human GAPDH primers were 5′-[…]-3′ (sense) and 5′-[…]-3′ (antisense). qPCR experiments were performed on a Bio-Rad CFX96 Touch (Pleasanton, CA, USA) according to the manufacturer’s instructions.

[2] = system: human corneal epithelial cells (HCEC); assay: CCK8 cytotoxicity assay, HCEC; format: cell-based; conditions: 40 μg/mL, 24 h
Description: as §1, §2

Vero cells = assay: CCK8 cytotoxicity assay, Vero cells; format: cell-based, monkey; conditions: 40 μg/mL, 24 h
Description: as §3, §2

HSV-1 [3] = assay: Plaque formation assay of extracellular HSV-1 particles; format: cell-based, herpes simplex virus type 1; conditions: supernatant in plaque formation assay
Description: as §3, §1
Vero cells seeded in a 24-well plate at 100% confluence were infected with virus diluent or supernatant. After 1 h of absorption at 37 °C, the supernatant was removed. Cells were washed three times with PBS and replenished with a plaque-covering layer (MEM with 2% FBS and 1.5% carboxymethylcellulose). After an incubation period of approximately 3 days, the cells were stained with 1% crystal violet containing 10% methanol for 0.5 h. Then, the plaques were counted, and the viral titer was calculated according to the plaque number and dilution.

[4] = system: human neuroepithelial cells (SK-N-MC); assay: CCK8 cytotoxicity assay, SK-N-MC; format: cell-based; conditions: 40 μg/mL, 24 h
Description: as §1, §2

Substance: INWLKLGKAVIDAL-NH2 [Protopolybia-MP III]
- cytotoxicity to A549 cells (A549 cells): almost nontoxic
- 50% inhibitory concentration (IC50) against HSV-1 RNA (HSV-1 [1]; 1 h): 5.132 ± 1.054 µg/mL
- inhibition rate on intracellular HSV-1 RNA (HSV-1 [1]; 1 h, 5 μg/mL): 50%
- inhibition rate on intracellular HSV-1 RNA (HSV-1 [1]; 1 h, 10 μg/mL): 73%
- inhibition rate on intracellular HSV-1 RNA (HSV-1 [1]; 1 h, 20 μg/mL): 94%
- effect on intracellular HSV-1 RNA (HSV-1 [1]; A549 cells): suppressed HSV-1 RNA
- effect on intracellular HSV-1 RNA (HSV-1 [1]; HCEC): suppressed HSV-1 RNA
- effect on intracellular HSV-1 RNA (HSV-1 [1]; SK-N-MC): suppressed HSV-1 RNA
- cytotoxicity to HCEC [2]: almost nontoxic
- cytotoxicity to Vero cells (Vero cells): almost nontoxic
- extracellular HSV-1 level versus PBS (HSV-1 [3]; A549 cells treated 24 h): lower
- extracellular HSV-1 level versus PBS (HSV-1 [3]; HCEC treated 24 h): lower
- extracellular HSV-1 level versus PBS (HSV-1 [3]; SK-N-MC treated 24 h): lower
- extracellular HSV-1 particles (plaques) (HSV-1 [3]; Vero cells treated 24 h): fewer plaques
- cytotoxicity to SK-N-MC [4]: almost nontoxic
